Assay results taken from ChEMBL document CHEMBL1201862, “PubChem BioAssay data set” (2004).
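Dose response: 5 concentrations. Exposure: 48 h. Format: 96-well plates. Endpoint: linear interpolation; highest concentration if not reached. GI50: concentration for 50% inhibition of growth.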 Active and inactive are the calls of the source. Cut-off read from the data, not from the text of the source: active = GI50 up to about 1.1 µM and inactive = higher.

Key:
Assay in all cases: NCI tumour cell line growth inhibition, 48 h
A549 = tested on: A549
Malme-3M = tested on: Malme-3M
OVCAR-8 = tested on: OVCAR-8
OVCAR-3 = tested on: OVCAR-3
SNB-78 = tested on: SNB-78
SNB-19 = tested on: SNB-19
CCRF-CEM = tested on: CCRF-CEM
Hs-578T = tested on: Hs-578T
TK-10 = tested on: TK-10
SNB-75 = tested on: SNB-75
SK-MEL-2 = tested on: SK-MEL-2
HCT-15 = tested on: HCT-15
CAKI-1 = tested on: CAKI-1
SR = tested on: SR
HL-60 = tested on: HL-60
RXF 393 = tested on: RXF 393
DU-145 = tested on: DU-145
PC-3 = tested on: PC-3
HOP-92 = tested on: HOP-92
NCI-H460 = tested on: NCI-H460

Structure (SMILES) | GI50 (A549) | GI50 (Malme-3M) | GI50 (OVCAR-8) | GI50 (OVCAR-3) | GI50 (SNB-78) | GI50 (SNB-19) | GI50 (CCRF-CEM) | GI50 (Hs-578T) | GI50 (TK-10) | GI50 (SNB-75) | GI50 (SK-MEL-2) | GI50 (HCT-15) [µM] | GI50 (CAKI-1) | GI50 (SR) | GI50 (HL-60) | GI50 (RXF 393) | GI50 (DU-145) | GI50 (PC-3) | GI50 (HOP-92) | GI50 (NCI-H460)
O=C1CCC(C(=O)O)C2=C1CCCC2 (stereo unspecified) | > 34 µM (inactive) | > 100 µM (inactive) | > 100 µM (inactive) | > 100 µM (inactive) | > 100 µM (inactive) | > 36.2 µM (inactive) | > 100 µM (inactive) | > 100 µM (inactive) | > 100 µM (inactive) | > 100 µM (inactive) | > 100 µM (inactive) | > 100 | > 100 µM (inactive) | > 100 µM (inactive) | > 100 µM (inactive) | > 100 µM (inactive) | > 100 µM (inactive) | > 100 µM (inactive) | > 100 µM (inactive) | 
CCc1cccc(CC)c1NC(=O)/C(Cl)=C(/Cl)C(=O)O | > 69.5 µM (inactive) | 19 µM (inactive) | 18.4 µM (inactive) | 32.8 µM (inactive) | 37.7 µM (inactive) | > 100 µM (inactive) | 6.44 µM (inactive) |  | 34 µM (inactive) | 43.9 µM (inactive) | > 100 µM (inactive) | 19.4 | 16.8 µM (inactive) | > 44.3 µM (inactive) | 5.05 µM (inactive) | 28.9 µM (inactive) |  |  | 21.7 µM (inactive) | > 100 µM (inactive)
O=C(O)CCSC(=S)Nc1ccc([N+](=O)[O-])cc1 | > 83.2 µM (inactive) | 38.2 µM (inactive) | 36.6 µM (inactive) | 45 µM (inactive) | > 100 µM (inactive) | > 81.8 µM (inactive) | 23.7 µM (inactive) | > 100 µM (inactive) | 51.8 µM (inactive) | 33.4 µM (inactive) | > 61.4 µM (inactive) | > 56.6 | > 100 µM (inactive) | 11.7 µM (inactive) | 20.8 µM (inactive) | > 60.8 µM (inactive) | 43.6 µM (inactive) | 48.2 µM (inactive) | 29.9 µM (inactive) | > 82.6 µM (inactive)
